Results as given in patent publication US9340554B2, “IRAK inhibitors and uses thereof” (Nimbus Iris, Inc., priority 2011, dated 2016).

target: T1, IRAK4 (Homo sapiens, UniProt Q9NWZ3); assay: IRAK-4 activity inhibition assay (Caliper, Peptide 8, 37 μM ATP); assay type: biochemical; conditions: 3.5 nM IRAK4, 1.5 μM Peptide 8, 37 μM ATP, 28° C. 40 minutes; read-out: IRAK-4 activity inhibition IC50
T1 construct: purchased CARNA Bioscience 09-145
T1 sequence (Q9NWZ3 1-460): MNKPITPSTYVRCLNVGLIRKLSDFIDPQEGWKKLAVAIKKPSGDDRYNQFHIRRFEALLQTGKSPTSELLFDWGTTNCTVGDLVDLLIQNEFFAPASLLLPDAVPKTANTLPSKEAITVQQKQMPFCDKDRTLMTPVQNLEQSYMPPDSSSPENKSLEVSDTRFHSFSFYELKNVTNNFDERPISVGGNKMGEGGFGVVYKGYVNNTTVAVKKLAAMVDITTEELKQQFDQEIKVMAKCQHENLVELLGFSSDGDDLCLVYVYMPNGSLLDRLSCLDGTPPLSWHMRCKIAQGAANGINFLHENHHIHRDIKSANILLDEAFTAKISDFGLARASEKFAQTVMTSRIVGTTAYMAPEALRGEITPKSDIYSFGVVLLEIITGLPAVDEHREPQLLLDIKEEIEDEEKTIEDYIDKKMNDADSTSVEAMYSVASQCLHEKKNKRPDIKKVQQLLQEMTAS
Description: A 1× kinase base buffer was prepared from 50 mM HEPES, pH 7.5 and 0.0015% Brij-35. A stop buffer was prepared from 100 mM HEPES, pH 7.5, 0.015% Brij-35, 0.2% Coating Reagent #3, and 50 mM EDTA.
Test compound was diluted to 50× of the final desired highest inhibitor concentration in reaction by 100% DMSO. 100 ul of this compound dilution was transferred to a well in a 96-well plate.
Test compound was serially diluted by transferring 30 μl to 60 μl of 100% DMSO in the next well and so forth for a total of 10 concentrations. 100 μl of 100% DMSO was added to two empty wells for no compound control and no enzyme control in the same 96-well plate.
A new 96-well plate was marked as intermediate plate. 5 μl of compound serial dilution was transferred from source plate to the corresponding wells of the intermediate plate. 45 μl of 1× kinase base buffer (KB buffer) was added to each well of the intermediate plate. The intermediate plate was placed for 10 min on a shaker.
5 μl of each well was transferred from the 96-well intermediate plate to a 384-well plate in duplicates. […] A2 of the 96-well plate is transferred to A3 and A4 of the 384-well plate, and so on.
IRAK4 and DTT in 1× kinase base buffer was added.
Assay plate already contained 5 μl of compound in 10% DMSO. Added 10 μl of 2.5× enzyme solution to each well of the 384-well assay plate, except no enzyme control wells. […] Added 10 μl of 1× kinase base buffer to no enzyme control wells in the assay plate. Incubated at room temperature for 10 min.
Added 10 μl of 2.5× peptide solution to each well of the 384-well assay plate. […] Incubated at 28° C. for 40 minutes. Added 25 μl of stop buffer to stop reaction. Collected data on Caliper.
Copied conversion % data from Caliper program. Converted conversion % values to percent inhibition values. Percent inhibition=(max−conversion %)/(max−min)*100, where “max” means the conversion % of DMSO control and “min” means the conversion % of no enzyme control.
The compound numbers correspond to the compound numbers in Table 1. […] “NA” stands for “not assayed.”

Compound | IC50
CC1(C)CCc2sc3ncnc(N4CCC(C(N)=O)CC4)c3c2C1 [Compound I-46] | 20 to 50 µM
c1nc(NC2CCOCC2)c2c3c(sc2n1)CCC3 [Compound I-8] | 20 to 50 µM
CCN(Cc1ccccc1)[C@H]1CC[C@H](Nc2ncnc3sc4c(c23)CCC4)CC1 [Compound I-120, 1-N-benzyl-1-N-ethyl-4-N-[7-thia-9,11-diazatricyclo[6.4.0.0[2,6]]dodeca-1(8),2(6),9,11-tetraen-12-yl]cyclohexane-1,4-diamine] | < 5 µM
CN(CCc1ccccc1)[C@H]1CC[C@H](Oc2ncnc3sc4c(c23)CCC4)CC1 [Compound I-121, N-methyl-N-(2-phenylethyl)-4-[7-thia-9,11-diazatricyclo[6.4.0.0[2,6]]dodeca-1(8),2(6),9,11-tetraen-12-yloxy]cyclohexan-1-amine] | < 5 µM
O=C(CN(CC(=O)N1CCCC1)[C@H]1CC[C@H](Nc2ncnc3sc4c(c23)CCC4)CC1)N1CCCC1 [Compound I-136, trans-2-[[2-oxo-2-(pyrrolidin-1-yl)ethyl][4-([7-thia-9,11-diazatricyclo[6.4.0.0[2,6]]dodeca-1(8),2(6),9,11-tetraen-12-yl]amino)cyclohexyl]amino]-1-(pyrrolidin-1-yl)ethan-1-one] | 5 to 20 µM
c1ccc(CCCN[C@H]2CC[C@H](Nc3ncnc4sc5c(c34)CCC5)CC2)cc1 [Compound I-119, (1r,4r)-N1-(6,7-dihydro-5H-cyclopenta[4,5]thieno[2,3-d]pyrimidin-4-yl)-N4-(3-phenylpropyl)cyclohexane-1,4-diamine] | < 5 µM
CNC1CCCC(Oc2ncnc3sc4c(c23)CCC4)CC1 (centres unmarked) [Compound I-113, N-methyl-4-[7-thia-9,11-diazatricyclo[6.4.0.0^[2,6]]dodeca-1(12),2(6),8,10-tetraen-12-yloxy]cycloheptan-1-amine] | 5 to 20 µM
CC1(C)CCc2sc3ncnc(N[C@H]4CC[C@H](O)CC4)c3c2C1 [Compound I-43, trans-4-((6,6-dimethyl-5,6,7,8-tetrahydrobenzo[4,5]thieno[2,3-d]pyrimidin-4-yl)amino)cyclohexanol] | 5 to 20 µM
C[C@@H]1CCc2sc3ncnc(N[C@H]4CC[C@H](N(C)C)CC4)c3c2C1 [Compound I-56, trans-N^1,N^1-dimethyl-N^4-((R)-6-methyl-5,6,7,8-tetrahydrobenzo[4,5]thieno[2,3-d]pyrimidin-4-yl)cyclohexane-1,4-diamine] | < 5 µM
CN(C1CCOCC1)[C@H]1CC[C@H](Nc2ncnc3sc4c(c23)CCC4)CC1 [Compound I-132, 1-N-methyl-1-N-(oxan-4-yl)-4-N-[7-thia-9,11-diazatricyclo[6.4.0.0[2,6]]dodeca-1(8),2(6),9,11-tetraen-12-yl]cyclohexane-1,4-diamine] | < 5 µM
NC(=O)C1CCN(c2ncnc3sc4c(c23)CCCC4)CC1 [Compound I-2] | 20 to 50 µM
O=C(CN(CC(=O)N1CCCC1)[C@H]1CC[C@H](Oc2ncnc3sc4c(c23)CCC4)CC1)N1CCCC1 [Compound I-137, trans-2-[[2-oxo-2-(pyrrolidin-1-yl)ethyl](4-[7-thia-9,11-diazatricyclo[6.4.0.0[2,6]]dodeca-1(8),2(6),9,11-tetraen-12-yloxy]cyclohexyl)amino]-1-(pyrrolidin-1-yl)ethan-1-one] | 5 to 20 µM
CC1CCc2c(sc3ncnc(N4CCC(C(N)=O)CC4)c23)C1 (centres unmarked) [Compound I-3] | 5 to 20 µM
CCC1CCc2c(sc3ncnc(N[C@H]4CC[C@H](N(C)C)CC4)c23)C1 (stereo partly drawn) [Compound I-55, trans-N^1-(7-ethyl-5,6,7,8-tetrahydrobenzo[4,5]thieno[2,3-d]pyrimidin-4-yl)-N^4,N^4-dimethylcyclohexane-1,4-diamine] | < 5 µM
CN[C@H]1CC[C@H](Nc2ncnc3sc4c(c23)CCCC4)CC1 [Compound I-53, trans-N^1-methyl-N4-(5,6,7,8-tetrahydrobenzo[4,5]thieno[2,3-d]pyrimidin-4-yl)cyclohexane-1,4-diamine] | < 5 µM
O=C(NCC(F)(F)F)C1CCN(c2ncnc3sc4c(c23)CCC4)CC1 [Compound I-33] | 20 to 50 µM
Cc1sc2ncnc(N3CCC(C(=O)Nc4cc(Cl)ccc4Cl)CC3)c2c1C [Compound I-32] | 5 to 20 µM
CN1CCC(COc2ncnc3sc4c(c23)CCC4)CC1 [Compound I-64] | 20 to 50 µM

Compound | IC50
O[C@@H]1CCC[C@H](Nc2ncnc3sc4c(c23)CCC4)C1 (relative stereo) [Compound I-21, cis-3-((6,7-dihydro-5H-cyclopenta[4,5]thieno[2,3-d]pyrimidin-4-yl)amino)cyclohexanol] | 5 to 20 µM
CN(CCc1ccccc1)[C@H]1CC[C@H](Nc2ncnc3sc4c(c23)CCC4)CC1 [Compound I-168, 1-N-methyl-1-N-(2-phenylethyl)-4-N-[7-thia-9,11-diazatricyclo[6.4.0.0^[2,6]]dodeca-1(8),2(6),9,11-tetraen-12-yl]cyclohexane-1,4-diamine] | < 5 µM
CN(Cc1ccncc1)[C@H]1CC[C@H](Nc2ncnc3sc4c(c23)CCC4)CC1 [Compound I-162] | < 5 µM
CC1CCc2sc3ncnc(N[C@H]4CC[C@H](O)CC4)c3c2C1 (relative stereo) [Compound I-37, trans-4-((6-methyl-5,6,7,8-tetrahydrobenzo[4,5]thieno[2,3-d]pyrimidin-4-yl)amino)cyclohexanol] | 5 to 20 µM
CN(C)CC1CCN(c2ncnc3sc4c(c23)CCC4)CC1 [Compound I-69] | > 50 µM
CN[C@H]1CC[C@H](Nc2ncnc3sc4c(c23)CCC4)CC1 [Compound I-34, trans-N^1-(6,7-dihydro-5H-cyclopenta[4,5]thieno[2,3-d]pyrimidin-4-yl)-N^4-methylcyclohexane-1,4-diamine] | < 5 µM
CCN(Cc1ccccc1)[C@H]1CC[C@H](Oc2ncnc3sc4c(c23)CCC4)CC1 [Compound I-117, (1r,4r)-N-benzyl-4-((6,7-dihydro-5H-cyclopenta[4,5]thieno[2,3-d]pyrimidin-4-yl)oxy)-N-ethylcyclohexanamine] | < 5 µM
c1nc(NCC2CCNCC2)c2c3c(sc2n1)CCC3 [Compound I-59] | 20 to 50 µM
CN(Cc1ncccc1F)[C@H]1CC[C@H](Nc2ncnc3sc4c(c23)CCC4)CC1 [Compound I-104, 1-N-[(3-fluoropyridin-2-yl)methyl]-1-N-methyl-4-N-[7-thia-9,11-diazatricyclo[6.4.0.0^[2,6]]dodeca-1(12),2(6),8,10-tetraen-12-yl]cyclohexane-1,4-diamine] | < 5 µM
O[C@H]1CC[C@H](Nc2ncnc3sc4c(c23)CCCC4)CC1 [Compound I-4, trans-4-((5,6,7,8-tetrahydrobenzo[4,5]thieno[2,3-d]pyrimidin-4-yl)amino)cyclohexanol] | 5 to 20 µM
Cc1sc2ncnc(N3CCC(C(=O)NCc4ccc(S(N)(=O)=O)cc4)CC3)c2c1C [Compound I-25] | 5 to 20 µM
CN(CCc1ccccn1)[C@H]1CC[C@H](Nc2ncnc3sc4c(c23)CCC4)CC1 [Compound I-106, 1-N-methyl-1-N-[2-(pyridin-2-yl)ethyl]-4-N-[7-thia-9,11-diazatricyclo[6.4.0.0^[2,6]]dodeca-1(8),2(6),9,11-tetraen-12-yl]cyclohexane-1,4-diamine] | < 5 µM
NC1CCN(c2ncnc3sc4c(c23)CCC4)CC1 [Compound I-9] | 20 to 50 µM
CN(Cc1c[nH]c2ccccc12)[C@H]1CC[C@H](Nc2ncnc3sc4c(c23)CCC4)CC1 [Compound I-110] | < 5 µM
CC(=O)N[C@H]1CC[C@H](Nc2ncnc3sc4c(c23)CCC4)CC1 [Compound I-11, N-(trans-4-((6,7-dihydro-5H-cyclopenta[4,5]thieno[2,3-d]pyrimidin-4-yl)amino)cyclohexyl)acetamide] | 5 to 20 µM
CCC1CCc2c(sc3ncnc(N4CCC(C(N)=O)CC4)c23)C1 (centres unmarked) [Compound I-17] | 5 to 20 µM
CN[C@H]1CC[C@H](Nc2ncnc3sc4c(c23)CC(C)CC4)CC1 (stereo partly drawn) [Compound I-52, trans-N^1-methyl-N4-(6-methyl-5,6,7,8-tetrahydrobenzo[4,5]thieno[2,3-d]pyrimidin-4-yl)cyclohexane-1,4-diamine] | < 5 µM
